Laboratory results reported in patent publication US20050234115A1, “Dosage forms and methods of treatment using VEGFR inhibitors” (Pfizer Inc., priority 2004, published 2005).
Read-outs that look alike come from different tables or passages of the source.

How the values were obtained:
VEGFR-2 = VEGFR-2 (Homo sapiens, UniProt P35968); assay: VEGF stimulated VEGFR-2 autophosphorylation in whole cells; format: cell-based
Description: (§1) The compound of formula 1 is an anti-angiogenic small molecule inhibitor of the tyrosine kinase activity of the vascular endothelial growth factor receptor 2 (VEGFR-2). […] Angiogenesis is necessary for the growth and metastasis of all solid tumors, in that newly formed blood vessels provide nutrients for growing tumors. VEGF is highly overexpressed in a number of tumors. The therapeutic objective of the compound of formula 1 is to inhibit angiogenesis and thereby prevent tumor growth by inhibition of VEGFR-2 tyrosine kinase (TK) activity.

endothelial cell = endothelial cell proliferation; format: cell-based
Description: as §1

[1] = hygroscopicity of the salt; format: physicochemical; details: at 90% relative humidity at ambient temperature
Protocol: The mixture was then shaken gently with heating at 50° C. for 3 hours and at ambient temperature for 3 days. The solid was filtered, dried under high vacuum to afford a white solid (468 mg, 0.823 mmol, 82%). Melting point 230° C. (DSC). Hygroscopicity: 1% (by weight)) at 90% relative humidity at ambient temperature (RH). Characteristic X-ray powder diffraction peaks (2-theta, [% relative intensity]): 8.623 [90.7], 12.121 [38.9], 17.298 [95.2], 23.397 [44.7], 23.944 [51.7], 24.119 [62.7], 24.873 [55.7], 25.948 [100], and 28.821 [39.6].

[2] = phase 1/2 study with paclitaxel and carboplatin: safety; format: in vivo, human patients
Protocol: (§2) Anti-tumor activity was also assessed.

stage IIIb or IV NSCLC = assay: phase 1/2 study with paclitaxel and carboplatin: anti-tumor activity; format: in vivo, human patients; details: 24 patients evaluable for response, with P/C
Protocol: as §2

[3] = parameters: species or system human patients; details: in vivo
Protocol: (§3) In a phase 1 study, fifty five (55) patients were treated with the compound of formula 2 as a single agent over a dose range from 35 mg PO (oral dose) for 14 days to 400 mg PO per day continuously. Overall, 25 male and 30 female patients were treated. Patient malignancies include: NSCL (11 patients), renal and urothelial (7 patients), breast (6 patients), colorectal (7 patients), esophageal (3 patients), pancreatic (2 patients), prostate (3 patients), melanoma (2 patients), head and neck (3 patients), soft tissue sarcoma (3 patients), other (8 patients). Forty-two patients had prior chemotherapy. Three patients starting at 300 mg/d had dose reductions to 225 mg/d; 2 reductions were for grade 3 hypertension (HTN), graded by the Common Toxicity Criteria (CTC version 2), occurring between days 15 and 18; 1 additional reduction was as per the patient's request after an episode of hemoptysis in this patient with renal cell carcinoma and lung metastasis. CTC Grade 3 hypertension was initially considered dose limiting at doses of the compound of formula 2 of 300 mg/d, occurring in 2 of 6 patients. Both patients returned to CTC grade 1 or better within 7 days of holding study drug.

[4] = test system: patient malignancies (NSCL, renal and urothelial, breast, colorectal, other); assay: phase 1 single agent study: tumor response; format: in vivo, human patients; details: of 29 patients with tumor response data
Protocol: as §3
Of the 29 patients for whom tumor response data is available, 9 patients have stable disease beyond 2 cycles (more than 8 weeks) and 2 patients had stable disease beyond 4 cycles (more than 16 weeks).

[5] = phase 1 single agent study: pharmacokinetic analysis; format: in vivo, human patients; details: for AUC: 250 mg
Protocol: A preliminary pharmacokinetic analysis has been performed on the compound of formula 2 concentration data from the patients in the Phase 1 study. In the higher dose cohorts in that study, blood specimens for pharmacokinetics were collected on Day 1 and 15 of Cycle 1 at the following times: just prior to dosing and at 0.5, 1, 2, 4, 6, 8, 12, 16, and 24 hours post-dose. Blood specimens for pharmacokinetics were also collected prior to and 2 hours after dosing on Days 3, 5, and 8 of Cycle 1. […] The 1% value of the cumulative distribution of the data is 2000 ng·hr/mL and the 99% value is 25000 ng·hr/mL. […] For instance, the 99% value for a dose of 300 mg is predicted to be 25000 ng·hr/mL times 1.2 (300 divided by 250) which equals 30000 ng·hr/mL. The 1% value for a dose of 125 mg is predicted to be 2000 ng·hr/mL times 0.5 (125 divided by 250) which equals 1000 ng·hr/mL. Similar calculations provide predictions of the 1% (lower) and 99% (upper) values of the cumulative distribution of 24-hour AUC values for doses of 150 mg, 180 mg, 260 mg, and 280 mg.

clinical = details: human, plasma, oral
Description: (§4) With daily (i.e., QD) dosing, the 24-hour AUC value (i.e., the dosing interval AUC value) is a standard measure of systemic exposure to the compound.
(§5) A phase 1/2 study examined the safety and PK of escalating oral QD doses of the hydrochloride salt of the compound of formula 1, viz., the hydrochloride salt of 3-(4-Bromo-2,6-difluoro-benzyloxy)-5-[3-(4-pyrrolidin-1-yl-butyl)-ureido]-isothiazole-4-carboxylic acid amide (i.e., compound of formula 2 shown above), given in combination with paclitaxel (P) (225 mg m^2) and carboplatin (C) (AUC=6) administered in 21 day cycles to chemotherapy naïve patients with PS 0-1 stage IIIb or IV NSCLC with or without stable brain mets and PS 0-1.

[6] = phase 1/2 study with paclitaxel and carboplatin: PK; details: doses ≧150 mg QD
Description: as §4, §5

Sequence of VEGFR-2 (P35968 20-1356): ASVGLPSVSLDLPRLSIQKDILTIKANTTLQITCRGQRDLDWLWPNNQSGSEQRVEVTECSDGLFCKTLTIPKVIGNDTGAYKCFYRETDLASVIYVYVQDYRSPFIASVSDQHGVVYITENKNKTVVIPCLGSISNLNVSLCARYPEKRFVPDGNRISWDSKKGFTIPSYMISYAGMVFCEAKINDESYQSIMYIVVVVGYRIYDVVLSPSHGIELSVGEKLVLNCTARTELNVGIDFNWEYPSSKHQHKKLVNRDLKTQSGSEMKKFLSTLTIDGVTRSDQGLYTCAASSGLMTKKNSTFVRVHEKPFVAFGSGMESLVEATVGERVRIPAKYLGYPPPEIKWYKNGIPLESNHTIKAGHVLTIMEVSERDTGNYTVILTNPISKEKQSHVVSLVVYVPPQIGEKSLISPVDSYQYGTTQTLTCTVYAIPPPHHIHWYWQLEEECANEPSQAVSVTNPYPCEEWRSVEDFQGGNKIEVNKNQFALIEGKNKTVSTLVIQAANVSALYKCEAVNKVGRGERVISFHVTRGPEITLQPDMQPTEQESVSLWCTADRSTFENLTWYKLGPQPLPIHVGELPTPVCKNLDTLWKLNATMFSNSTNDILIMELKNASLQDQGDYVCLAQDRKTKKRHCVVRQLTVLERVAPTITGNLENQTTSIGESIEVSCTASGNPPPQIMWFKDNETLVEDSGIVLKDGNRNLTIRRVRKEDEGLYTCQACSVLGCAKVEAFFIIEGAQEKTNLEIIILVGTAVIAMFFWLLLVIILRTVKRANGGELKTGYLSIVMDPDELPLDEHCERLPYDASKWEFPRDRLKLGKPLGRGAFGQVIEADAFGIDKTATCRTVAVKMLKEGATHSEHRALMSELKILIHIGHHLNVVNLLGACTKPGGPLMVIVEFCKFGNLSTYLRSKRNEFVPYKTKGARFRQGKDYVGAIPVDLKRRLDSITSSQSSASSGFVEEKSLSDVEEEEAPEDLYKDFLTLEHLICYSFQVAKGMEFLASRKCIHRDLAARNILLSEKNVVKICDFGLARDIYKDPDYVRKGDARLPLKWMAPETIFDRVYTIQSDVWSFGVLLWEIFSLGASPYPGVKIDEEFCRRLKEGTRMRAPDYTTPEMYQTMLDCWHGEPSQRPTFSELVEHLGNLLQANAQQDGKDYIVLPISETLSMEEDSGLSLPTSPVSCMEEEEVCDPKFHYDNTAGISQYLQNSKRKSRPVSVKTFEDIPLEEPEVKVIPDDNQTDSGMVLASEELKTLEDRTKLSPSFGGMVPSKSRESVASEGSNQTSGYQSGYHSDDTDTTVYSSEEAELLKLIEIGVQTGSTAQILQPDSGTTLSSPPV

## NC(=O)c1c(OCc2c(F)cc(Br)cc2F)nsc1NC(=O)NCCCCN1CCCC1 [compound of formula 1]
VEGFR-2
  inhibition of VEGF stimulated VEGFR-2 autophosphorylation: inhibits VEGF stimulated VEGFR-2 autophosphorylation in whole cells
Endothelial cell
  inhibition of endothelial cell proliferation: inhibits endothelial cell proliferation

## Cl.NC(=O)c1c(OCc2c(F)cc(Br)cc2F)nsc1NC(=O)NCCCCN1CCCC1 [compound of formula 2]
[1]
  Hygroscopicity: 1 % (by weight)
[2]; in vivo
  most common treatment emergent adverse events: diarrhea, fatigue, nausea, neuropathy, emesis, alopecia, dyspnea and arthralgia/myalgia
[2]; in vivo, po
  safety of combination with standard doses of P/C: can be safely combined with standard doses of P/C
[2]; oral QD with paclitaxel 225 mg/m2 and carboplatin AUC=6, 21 day cycles, NSCLC patients
  maximum tolerable dose: 200 mg/day
Stage IIIb or IV NSCLC
  objective response rate: 20%
  progressive disease rate: 33%
[3]; both, human
  CTC Grade 3 hypertension (initially considered dose limiting): 2 of 6
  dermatologic events reported by more than one patient: grade 2 venostasis rash, which occurred in cycle 2, and grade 1 pallor and shingles
  events in patient dose reduced from 400 mg to 350 mg: grade 3 fatigue
  patients with dose limiting toxicities: None of the 4
  patients with dose limiting toxicity: 1 of 10
  recommended Phase 2 single agent dose: 250 mg
  reports of grade 3 diarrhea: 3 reports
[3]; both, human, po
  maximum administered dose: 400 mg
[3]
  events in patient further dose reduced to 300 mg: severe renal hemorrhage, alveolar hemorrhage and gastrointestinal hemorrhage
  other gastrointestinal adverse events occurring in 2 or more patients: nausea, taste disturbance, anorexia and mouth dryness
[4]
  patients with stable disease beyond 2 cycles (more than 8 weeks): 9 patients
  patients with stable disease beyond 4 cycles (more than 16 weeks): 2 patients
[5]; 250 mg daily dose
  drug concentrations versus predicted efficacious concentrations: consistently above the lowest predicted human efficacious concentrations
[5]; dose of 125 mg, assuming dose proportionality
  24-hour AUC, predicted 1% value of the cumulative distribution: 1000 ng·h/mL
[5]; dose of 300 mg, assuming dose proportionality
  24-hour AUC, predicted 99% value of the cumulative distribution: 30000 ng·h/mL
[5]; human, plasma, oral, 250 mg QD, 19 patients, log-normal distribution, read-out: 24-hour AUC, geometric mean
  AUC: 7260 ng·h/mL
[5]; human, plasma, oral, 250 mg QD, 19 patients, read-out: 24-hour AUC values, range
  AUC: 2880 to 18700 ng·h/mL
[5]; human, plasma, oral, 250 mg QD, 19 patients, read-out: 24-hour AUC, 1% value of the cumulative distribution
  AUC: 2000 ng·h/mL
[5]; human, plasma, oral, 250 mg QD, 19 patients, read-out: 24-hour AUC, 99% value of the cumulative distribution
  AUC: 25000 ng·h/mL
[5]; human, plasma, oral, 250 mg QD, 19 patients, standard deviation 240 ng/mL, read-out: mean Cmax (maximum observed plasma concentration)
  Cmax: 457 ng/mL
clinical
  half-life: ~32 h
[6]
  plasma concentrations achieved: within the range associated with anti-angiogenesis in preclinical models
